Source: the supplement of paper PMC10307832

Tests used:
Experiment in all cases: relative viability (nuclei count vs DMSO), 5 days (fraction); higher = more cells survive
PC-3 [JPC-3] = tested on: PC-3 [JPC-3]
Procedure, shortened: (§1)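 Lung cancer cell lines were pin-tool dosed in 1536-well plates on the day after seeding, with either a lone drug or a fixed anchor-drug dose plus five library-drug doses (not always all listed) in √10 steps. Nuclei were counted on 4× images after 5 days. Relative viability is the ratio of treated-well to vehicle-well nuclei counts, with each value a median of duplicate plates.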

UMC-11 = tested on: UMC-11
Procedure, shortened: as §1

LK-2 = tested on: LK-2
Procedure, shortened: as §1

LU99A = tested on: LU99A
Procedure, shortened: as §1

SK-LU-1 = tested on: SK-LU-1
Procedure, shortened: as §1

NCI-H2228 = tested on: NCI-H2228
Procedure, shortened: as §1

LCLC-97TM1 = tested on: LCLC-97TM1
Procedure, shortened: as §1

NCI-H1993 = tested on: NCI-H1993
Procedure, shortened: as §1

HCC-827 = tested on: HCC-827
Procedure, shortened: as §1

NCI-H1650 = tested on: NCI-H1650
Procedure, shortened: as §1

LXF-289 = tested on: LXF-289
Procedure, shortened: as §1

NCI-H2170 = tested on: NCI-H2170
Procedure, shortened: as §1

EPLC-272H = tested on: EPLC-272H
Procedure, shortened: as §1

ChaGo-K-1 = tested on: ChaGo-K-1
Procedure, shortened: as §1

EKVX = tested on: EKVX
Procedure, shortened: as §1

SW 1573 = tested on: SW 1573
Procedure, shortened: as §1

NCI-H2405 = tested on: NCI-H2405
Procedure, shortened: as §1

NCI-H522 = tested on: NCI-H522
Procedure, shortened: as §1

HOP-62 = tested on: HOP-62
Procedure, shortened: as §1

NCI-H441 = tested on: NCI-H441
Procedure, shortened: as §1

H3255 = tested on: H3255
Procedure, shortened: as §1

NCI-H1355 = tested on: NCI-H1355
Procedure, shortened: as §1

NCI-H3122 = tested on: NCI-H3122
Procedure, shortened: as §1

Question: What does the source list for `Cc1csc(=NC2CCCCC2)n1/N=C/c1ccc(O)c(O)c1O` [MIM1] + CCNC(=O)c1noc(-c2cc(C(C)C)c(O)cc2O)c1-c1ccc(CN2CCOCC2)cc1 [Luminespib] (partner 0.01 µM)?
Answer: relative viability (PC-3 [JPC-3]; first compound 0.2 µM): 0.508; relative viability (PC-3 [JPC-3]; first compound 0.6325 µM): 0.661; relative viability (PC-3 [JPC-3]; first compound 2 µM): 0.674; relative viability (PC-3 [JPC-3]; first compound 6.325 µM): 0.65; relative viability (PC-3 [JPC-3]; first compound 20 µM): 0.594; relative viability (UMC-11; first compound 0.2 µM): 1.03; relative viability (UMC-11; first compound 2 µM): 1.23; relative viability (UMC-11; first compound 6.325 µM): 0.686; relative viability (UMC-11; first compound 20 µM): 0.369; relative viability (LK-2; first compound 0.2 µM): 0.16; relative viability (LK-2; first compound 2 µM): 0.169; relative viability (LK-2; first compound 6.325 µM): 0.195; relative viability (LK-2; first compound 20 µM): 0.171; relative viability (LU99A; first compound 0.2 µM): 0.227; relative viability (LU99A; first compound 0.6325 µM): 0.317; relative viability (LU99A; first compound 2 µM): 0.26; relative viability (LU99A; first compound 6.325 µM): 0.308; relative viability (LU99A; first compound 20 µM): 0.219; relative viability (SK-LU-1; first compound 0.2 µM): 0.178; relative viability (SK-LU-1; first compound 0.6325 µM): 0.21; relative viability (SK-LU-1; first compound 2 µM): 0.181; relative viability (SK-LU-1; first compound 6.325 µM): 0.196; relative viability (SK-LU-1; first compound 20 µM): 0.227; relative viability (NCI-H2228; first compound 0.2 µM): 0.18; relative viability (NCI-H2228; first compound 0.6325 µM): 0.155; relative viability (NCI-H2228; first compound 2 µM): 0.181; relative viability (NCI-H2228; first compound 6.325 µM): 0.151; relative viability (NCI-H2228; first compound 20 µM): 0.111; relative viability (LCLC-97TM1; first compound 0.2 µM): 0.783; relative viability (LCLC-97TM1; first compound 0.6325 µM): 0.733; relative viability (LCLC-97TM1; first compound 2 µM): 0.755; relative viability (LCLC-97TM1; first compound 6.325 µM): 0.512; relative viability (LCLC-97TM1; first compound 20 µM): 0.238; relative viability (NCI-H1993; first compound 0.2 µM): 0.441; relative viability (NCI-H1993; first compound 0.6325 µM): 0.663; relative viability (NCI-H1993; first compound 2 µM): 0.652; relative viability (NCI-H1993; first compound 6.325 µM): 0.633; relative viability (NCI-H1993; first compound 20 µM): 0.499; relative viability (HCC-827; first compound 0.2 µM): 0.517; relative viability (HCC-827; first compound 0.6325 µM): 0.384; relative viability (HCC-827; first compound 2 µM): 0.698; relative viability (HCC-827; first compound 6.325 µM): 0.371; relative viability (HCC-827; first compound 20 µM): 0.184; relative viability (NCI-H1650; first compound 0.2 µM): 0.223; relative viability (NCI-H1650; first compound 0.6325 µM): 0.189; relative viability (NCI-H1650; first compound 2 µM): 0.221; relative viability (NCI-H1650; first compound 6.325 µM): 0.19; relative viability (NCI-H1650; first compound 20 µM): 0.22; relative viability (LXF-289; first compound 0.2 µM): 0.708; relative viability (LXF-289; first compound 0.6325 µM): 0.649; relative viability (LXF-289; first compound 2 µM): 0.659; relative viability (LXF-289; first compound 6.325 µM): 0.54; relative viability (LXF-289; first compound 20 µM): 0.453; relative viability (NCI-H2170; first compound 0.2 µM): 0.707; relative viability (NCI-H2170; first compound 0.6325 µM): 0.497; relative viability (NCI-H2170; first compound 2 µM): 0.729; relative viability (NCI-H2170; first compound 6.325 µM): 0.473; relative viability (NCI-H2170; first compound 20 µM): 0.434; relative viability (EPLC-272H; first compound 0.2 µM): 0.491; relative viability (EPLC-272H; first compound 0.6325 µM): 0.266; relative viability (EPLC-272H; first compound 2 µM): 0.205; relative viability (EPLC-272H; first compound 6.325 µM): 0.143; relative viability (EPLC-272H; first compound 20 µM): 0.122; relative viability (ChaGo-K-1; first compound 0.2 µM): 0.559; relative viability (ChaGo-K-1; first compound 0.6325 µM): 0.735; relative viability (ChaGo-K-1; first compound 2 µM): 0.473; relative viability (ChaGo-K-1; first compound 6.325 µM): 0.323; relative viability (ChaGo-K-1; first compound 20 µM): 0.158; relative viability (EKVX; first compound 0.2 µM): 0.863; relative viability (EKVX; first compound 0.6325 µM): 0.766; relative viability (EKVX; first compound 2 µM): 0.832; relative viability (EKVX; first compound 6.325 µM): 0.701; relative viability (EKVX; first compound 20 µM): 0.617; relative viability (SW 1573; first compound 0.2 µM): 0.22; relative viability (SW 1573; first compound 0.6325 µM): 0.318; relative viability (SW 1573; first compound 2 µM): 0.194; relative viability (SW 1573; first compound 6.325 µM): 0.143; relative viability (SW 1573; first compound 20 µM): 0.069; relative viability (NCI-H2405; first compound 0.2 µM): 0.68; relative viability (NCI-H2405; first compound 0.6325 µM): 0.92; relative viability (NCI-H2405; first compound 2 µM): 0.654; relative viability (NCI-H2405; first compound 6.325 µM): 0.543; relative viability (NCI-H2405; first compound 20 µM): 0.403; relative viability (NCI-H522; first compound 0.2 µM): 1.23; relative viability (NCI-H522; first compound 0.6325 µM): 1.05; relative viability (NCI-H522; first compound 2 µM): 1.03; relative viability (NCI-H522; first compound 6.325 µM): 1.19; relative viability (NCI-H522; first compound 20 µM): 0.494; relative viability (HOP-62; first compound 0.2 µM): 1.01; relative viability (HOP-62; first compound 0.6325 µM): 0.841; relative viability (HOP-62; first compound 2 µM): 0.893; relative viability (HOP-62; first compound 6.325 µM): 0.758; relative viability (HOP-62; first compound 20 µM): 0.301; relative viability (NCI-H441; first compound 0.2 µM): 0.253; relative viability (NCI-H441; first compound 2 µM): 0.327; relative viability (NCI-H441; first compound 6.325 µM): 0.354; relative viability (NCI-H441; first compound 20 µM): 0.191; relative viability (H3255; first compound 0.2 µM): 0.865; relative viability (H3255; first compound 0.6325 µM): 0.85; relative viability (H3255; first compound 2 µM): 0.798; relative viability (H3255; first compound 6.325 µM): 0.769; relative viability (H3255; first compound 20 µM): 0.34; relative viability (NCI-H1355; first compound 0.2 µM): 0.698; relative viability (NCI-H1355; first compound 0.6325 µM): 0.591; relative viability (NCI-H1355; first compound 2 µM): 0.726; relative viability (NCI-H1355; first compound 6.325 µM): 0.659; relative viability (NCI-H1355; first compound 20 µM): 0.391; relative viability (NCI-H3122; first compound 0.2 µM): 0.0956; relative viability (NCI-H3122; first compound 0.6325 µM): 0.0902; relative viability (NCI-H3122; first compound 2 µM): 0.103; relative viability (NCI-H3122; first compound 6.325 µM): 0.106; relative viability (NCI-H3122; first compound 20 µM): 0.0938
